Laboratory results from patent publication US5270316A, “Condensed purine derivatives” (Kyowa Hakko Kogyo Co., Ltd., priority 1989, dated 1993).
Read-outs that look alike come from different tables or passages of the source.

What was measured:
trachea = test: Passive Schultz-Dale reaction (bronchodilatory effects), relaxation of sensitized trachea strips; parameters: species or system guinea pig (Hartley male); conditions: Cavia porcellus; sensitized guinea pig trachea, EWA 1 μg/ml, 37° C.; read-out: Passive S-D reaction IC50 (concentration of 50% relaxation rate)
Protocol: Guinea pigs were passively sensitized as follows. […] After 24 hours, the guinea pigs were stunned and exsanguinated, and then trachea was excised. The zig-zag strips of the trachea were prepared by the method of Emmerson and Mackay [J. Pharm. […] After the contraction curves reached plateau the compounds were successively added in order to get cumulative concentration-relaxation curves.

Experimental asthma = Experimental asthma (collapse time after antigen aerosol); format: in vivo, guinea pig (Hartley male); conditions: 50 mg/kg oral, passively sensitized guinea pigs, 1.5% EWA aerosol; control 254 ± 18
Protocol: Guinea pigs were passively sensitized as follows. Hartley male guinea pigs weighing 350 to 500 g were intraperitoneally injected with 1 ml of rabbit anti-egg alubmin (EWA) serum prepared by the method of Koda et al. [Folia pharmacol., Japon, 66, 237 (1970)]. The animals were treated with intraperitoneal injection of diphenhydramine (20 mg/kg) and propranolol (5 mg/kg), 30 minutes before administration of test compounds. 17 hours after the sensitization, the test compounds (50 mg/kg) or saline (control) were orally administered to sensitized animals. After one hour from the administration of the test compounds, the guinea pigs were placed in plastic observation box and were exposed to an aerosal antigen of 1.5% EWA.
The time until the onset of respiratory distress-like symptom [collapse time (second)] was measured as a result of experimental asthma.

[1] = tested on: Platelet Activating Factor (PAF)-induced mortality; test: Inhibition of Platelet Activating Factor (PAF)-induced mortality; format: in vivo, mouse (male dd mice); conditions: Mus musculus, 2 h, oral, mice, one hour before PAF 40 μg/kg i.v., p<0.05 vs control, read-out: PAF-induced mortality inhibition, minimum effective dose (MED)
Protocol: The experiment was performed by a minor modification of method of Carlson et al. [Agents and Actions, 21, 379 (1987)]. Groups each consisting of 10 male dd mice (weighing 28 to 32 g) were used, and 100 mg/kg of test compound or a saline (control) was orally administrated. One hour after the administration of test compound, 40 μg/kg of PAF (manufactured by Avanti Polar Lipids Co., Ltd.) was intravenously administered. Two hours after PAF injection, the mortality rate of the animals was observed.

[2] = Acute toxicity, minimum lethal dose (oral, mice); format: in vivo; conditions: male dd-mice, mortality observed for seven days
Protocol: The compounds were orally administrated to male dd-mice weighing 20±1 g. Minimum lethal dose (MLD) was determined by observing the mortality for seven days after the administration.

[3] = Diuretic activity (oral, urine collected for 6 hours); format: in vivo, rat (Wistar male rats); conditions: Rattus norvegicus, rats; for response vs control in vivo at 6.25 mg/kg: 6.25 mg/kg oral; for response vs control in vivo at 25 mg/kg: 25 mg/kg oral; for response vs control in vivo at 1.6 mg/kg: 1.6 mg/kg oral
Protocol: Wistar male rats weighing 150 to 300 g were used after they were fasted for 18 hours. A test compound or saline (control) was orally administered to rats and urine was collected for 6 hours. The test was performed using 3 groups per the test compound, and each group consists of 3 animals. The urine was metered by a measuring cylinder and electrolytes (Na^+ and K^+) in the urine were assayed with a flame photometer (model […] manufactured by Hitachi Ltd.). Parameters in Table 3 are all expressed by relative value for control.

[4] = tested on: Glycerol-induced Renal Deficient Model; test: Renal protecting activity (glycerol-induced renal deficient model): serum creatinine and urea nitrogen; format: in vivo, rat (Wistar male rats); conditions: 10 mg/kg intraperitoneal, rats, 24 hours after glycerol injection, own control beside each compound; for Creatinine in serum, glycerol treated, test compound administrated: normal control 0.50; for Urea nitrogen in serum, glycerol treated, test compound administrated: normal control 15.2
Protocol: It is well known that subcutaneous or intramuscular administration of glycerol to rat induce acute renal insufficiency characterized by renal tubular disturbance [Can J. Physiol.
Wistar male rats (fasted both food and water for 18 hours) were used. A test compound or saline (control) was intraperitoneally administered (dose: 10 mg/kg) to rats. After 30 minutes rats were anesthesized with ether and the back skin was picked up and 0.8 ml/100 g of 50% glycerol was subcutaneously administered. 24 hours after the glycerol injection, the rats were anesthesized with ether and 5 ml of the blood was collected from the descending aorta. To obtain the serum, after allowing it to stand for 30 minutes or longer, the blood sample was centrifuged at 3000 rpm for 10 minutes. Creatinine in the serum sample was determined using autoanalyzer (AU510, Olympus) or clinical analysis kit of creatinine (Creatinine Test Wako; by Wako Pure Chemical Ind., Japan). Urea nitrogen in the serum was determined using autoanalyzer (AU510; made by Olympus Optical Co., Ltd, Japan) or clinical analysis kit of urea nitrogen (Urea nitrogen test wako; by Wako Pure Chemical Ind., Japan).

[5] = J. Med. Chem., 23, 1188 (1980); cited from earlier work
[6] = relative value for control (1.00), read-out: Na+/K+
[7] = relative value for control, read-out: Excretion of K+
[8] = relative value for control, read-out: Excretion of Na+
[9] = relative value for control, read-out: Urine volume

Row | Structure (SMILES) | IC50 (trachea) | Experimental asthma, collapse time (Experimental asthma) | minimal effective dose [1] | Minimum lethal dose (MLD) [2] | response vs control in vivo at 25 mg/kg [3, 6] | response vs control in vivo at 25 mg/kg [3, 7] | response vs control in vivo at 25 mg/kg [3, 8] | response vs control in vivo at 25 mg/kg [3, 9] | Creatinine in serum, glycerol treated, test compound administrated [4] | other results
1 | Cn1c(=O)c2[nH]cnc2n(C)c1=O [Theophylline, reference compound] | 23 µM | 414 ± 47 s | 100 mg/kg | – | – | – | – | – | – | –
2 | CCCN1C(=O)N2CC(c3ccccc3)N=C2c2[nH]c(C3CCCC3)nc21 (stereo not shown) [15 Sa] | > 40 µM | – | 100 mg/kg | > 300 mg/kg | 151% | 26% | 90% | 95% | 2.34 ± 0.12 mg/dL | response vs control in vivo at 6.25 mg/kg [3, 6]: 232%; response vs control in vivo at 6.25 mg/kg [3, 7]: 9%; response vs control in vivo at 6.25 mg/kg [3, 8]: 153%; response vs control in vivo at 6.25 mg/kg [3, 9]: 137%; Urea nitrogen in serum, glycerol treated, test compound administrated [4]: 101.8 ± 11.8 mg/dL
3 | CCCN1C(=O)N2C(=NCC2c2ccccc2)c2c1ncn2C (stereo not shown) [Compound 5, 1-Methyl-7-phenyl-4-n-propyl-1,4,7,8-tetrahydro-5H-imidazo[2,1-i]purin-5-one] | 32 µM | 542 ± 36 s | – | > 300 mg/kg | 167% | 77% | 197% | 165% | – | –
4 | CCCN1C(=O)N2CCN=C2c2c1ncn2C [Compound 1, 1-Methyl-4-n-propyl-1,4,7,8-tetrahydro-5H-imidazo[2,1-i]purin-5-one] | 0.003 µM | – | > 100 mg/kg | > 300 mg/kg | – | – | – | – | 1.94 ± 0.16 mg/dL | –
5 | CCCN1C(=O)N2CC(C)(C)N=C2c2[nH]c(C3CCCC3)nc21 [14 Sa] | 11 µM | – | 100 mg/kg | > 300 mg/kg | 200% | 31% | 162% | 145% | 2.62 ± 0.40 mg/dL | response vs control in vivo at 6.25 mg/kg [3, 6]: 123%; response vs control in vivo at 6.25 mg/kg [3, 7]: 43%; response vs control in vivo at 6.25 mg/kg [3, 8]: 75%; response vs control in vivo at 6.25 mg/kg [3, 9]: 113%; Urea nitrogen in serum, glycerol treated, test compound administrated [4]: 94.8 ± 14.3 mg/dL
6 | O=C1N2CCN=C2c2[nH]cnc2N1Cc1ccc(Cl)cc1 [formula (A)] | – | – | – | – | – | – | – | – | – | bronchodilatory effect [5]: slight bronchodilatory effect
7 | CCCN1C(=O)N2CC(C(C)C)N=C2c2[nH]c(C3CCCC3)nc21 (stereo not shown) [13 Sa] | – | 374 ± 76 s | – | – | – | – | – | – | – | response vs control in vivo at 6.25 mg/kg [3, 6]: 163%; response vs control in vivo at 6.25 mg/kg [3, 7]: 18%; response vs control in vivo at 6.25 mg/kg [3, 8]: 92%; response vs control in vivo at 6.25 mg/kg [3, 9]: 140%
8 | CCCN1C(=O)N2CC(CC)N=C2c2c1ncn2C (stereo not shown) [Compound 4, 8-Ethyl-1-methyl-4-n-propyl-1,4,7,8-tetrahydro-5H-imidazo[2,1-i]purin-5-one] | 0.036 µM | – | > 100 mg/kg | > 300 mg/kg | – | – | – | – | – | –
9 | CCCN1C(=O)N2CCN=C2c2[nH]c(C3CCCC3)nc21 [Compound 6, 2-Cyclopentyl-4-n-propyl-1,4,7,8-tetrahydro-5H-imidazo[2,1-i]purin-5-one] | > 40 µM | – | 50 mg/kg | – | – | – | – | – | 1.81 ± 0.12 mg/dL | response vs control in vivo at 1.6 mg/kg [3, 6]: 155%; response vs control in vivo at 1.6 mg/kg [3, 7]: 30%; response vs control in vivo at 1.6 mg/kg [3, 8]: 102%; response vs control in vivo at 1.6 mg/kg [3, 9]: 121%
10 | Cn1cnc2c1C1=NCCN1C(=O)N2Cc1ccccc1 [10 Sa] | 9.7 µM | 357 ± 65 s | – | > 300 mg/kg | – | – | – | – | – | –
11 | CCCN1C(=O)N2CCN=C2c2[nH]cnc21 [Compound 2, 4-n-Propyl-1,4,7,8-tetrahydro-5H-imidazo[2,1-i]purin-5-one] | 21 µM | 552 ± 20 s | 100 mg/kg | – | – | – | – | – | 1.63 ± 0.19 mg/dL | –
12 | CCCN1C(=O)N2CCN=C2c2c1nc(C1CCCC1)n2C [Compound 7, 2-Cyclopentyl-1-methyl-4-n-propyl-1,4,7,8-tetrahydro-5H-imidazo[2,1-i]purin-5-one] | 8.1 µM | – | > 100 mg/kg | – | 137% | 56% | 114% | 128% | 1.70 ± 0.17 mg/dL | Urea nitrogen in serum, glycerol treated, test compound administrated [4]: 64.3 ± 7.1 mg/dL
13 | O=C1N2CCN=C2c2[nH]cnc2N1Cc1ccccc1 [Compound 9, 4-Benzyl-1,4,7,8-tetrahydro-5H-imidazo[2,1-i]purin-5-one] | > 40 µM | – | 100 mg/kg | – | – | – | – | – | – | –
